Reference: patent US20140221639A1, “RADIOLABELED NUCLEOSIDE ANALOGUE, AND PREPARATION METHOD AND USE THEREOF” (Institute of Nuclear Energy Research Atomic Energy Council, …, priority 2011, published 2014)
“And” between values parts separate entries of the source, which are not always exact repeats. Equal values may be shown once. Read-outs that look alike come from different tables or passages of the source.

Assays:
[1] = in human body, as shown in literatures; cited from earlier work
[2] = in mice, as shown in literatures; cited from earlier work
[3] = literature; cited from earlier work
[4] = system: LL/2 cells; assay: Cellular uptake test (ratio of cell to medium); assay type: cell-based; settings: 1, 2, 4 and 8 h
Method: (§1) 2×10^6 cells was inoculated in a 15 cm^2 dish containing 14 mL medium supplemented with 10% FBS. […] At specified time points (using I-131 tracer at 1, 2, 4 and 8_h), the cells on the dish was harvested by using a cell scraper. Then, a cell suspension was transferred to a 15 mL centrifuge tube and centrifuged (at 3500 rpm) for 2 min. After centrifugation, 100 μL centrifugate was collected to a preweighed counting tube and directly poured into a maintained medium. Cell pellets were frozen with dry ice, and further collected into another weighed counting tube. […] Accumulation of activity of radioactive trancer in cell in vitro is represented by a radio of cell to medium:
(§2) Uptake experimental results of the two radioactive nucleoside analogues [^131I]IUdR and [^131I]ICdR in cells are as shown in FIGS. 4((a), (b)).

[5] = system: NG4TL4 cells; assay: Cellular uptake test (ratio of cell to medium); assay type: cell-based; settings: 1, 2, 4 and 8 h
Method: as §1, §2

[6] = system: NG4TL4 sarcoma cells; assay: Study on incorporation in DNA; assay type: cell-based; settings: 1 μCi/mL medium, 0.5-8 h
Method: DNA was extracted with Genomic DNA Mini Kit (Geneaid Biotech Ltd., Taiwan). NG4TL4 cell lines were harvested and inoculated into a petri dish at 2×10^6. […] At 0.5, 1, 2, 4 and 8 h after incubation, the medium was removed, and the cells was washed two times with ice-cold PBS, and then sheared with trypsin and collected to a centrifuge tube for centrifugation (at […] for 1 min). The supernatant was removed, while 50 μL remaining buffer was left to keep the cells in suspension. 300 μL cell lysis buffer was added to the sample and uniformly mixed, the cells was cultured in a water bath at 60° C. for a sereral minutes till the solution was transparent (the sample was inversed once every 3 min). 2 μL RNAse (25 mg/mL) was added to the sample and uniformly mixed, after 5-min incubation at room temperature, 100 μL protein removal buffer was added to the sample, uniformly mixed immediately, and centrifuged for 3 min at full speed (14000 rpm) after 5-min incubation on ice. The resulting solution was transferred as a suspension to another tube, and isopropanol was added and thoroughly mixed. […] In the test, DNA purity was determined at absorption wavelengths of 260 nm and 280 nm, and the ratio of absorbances (OD260/OD280) was about 1.7.

[7] = Analysis of metabolites in blood and urine through NP-TLC; assay type: in vivo, FVB/N mice; settings: NP-TLC CH2Cl2/MeOH = 15/1
Method: Blood samples were obtained by heart puncture, and then centrifuged at 13,000 rpm for 10 min. Then, the supernatant (about 300 μL) was placed in a 1.5 mL centrifuge tube containing equal amount of ethanol, and then centrifuged again to obtain the serum.

[8] = system: NG4TL4-WT tumor; assay: Biodistribution study in tumor-bearing mice; assay type: in vivo, FVB/N mice; settings: for Biodistribution Blood / Biodistribution Bone / Biodistribution Kidney / Biodistribution Large Intestine / Biodistribution Liver / Biodistribution Lung / Biodistribution Marrow / Biodistribution Pancreas / Biodistribution Stomach / Biodistribution Tumor / Biodistribution Heart / Biodistribution Spleen / Biodistribution Small Intestine / Biodistribution Muscle: 80~90 μCi tail vein, FVB/N mice with NG4TL4-WT tumor
Text: […] Tumor and 13 other tissures (blood, heart, lung, liver, stomach, small intestine, large intestine, spleen, pancreas, kidney, bone, marrow, and muscle) were removed, rinsed, weighed, and determined for radioactivity with a γ scintilation counter. Uptake of the radioactive trancers in the tissues (counts per min) was calibrated against decay, normalizedto sample weight, and expressed as percentages of injected dosage per gram of tissue (% ID/g) and aggregation ratio of tumor to blood.

[9] = healthy FVB/N mice, intravenous 200 μCi, blood radioactivity
[10] = 5 min after ^131I-IUdR at tail vein
[11] = 15 min after ^131I-IUdR at tail vein

## O=c1[nH]c(=O)n([C@H]2C[C@H](O)[C@@H](CO)O2)cc1I [IUdR]
[1]
  in vivo physiological half life: 5 min
[2]
  in vivo physiological half life: 7 min

## Cc1cn([C@@H]2O[C@H](CO)[C@@H](O)[C@@H]2[18F])c(=O)[nH]c1=O [[^18F]FMAU, 2-[^18F]fluoro-5-methyl-1-β-D-arabinofuranosyluracil]
[3]
  stability in the organism: very stable

## O=c1[nH]c(=O)n([C@H]2C[C@H](O)[C@@H](CO)O2)cc1[131I] [^131I-IUdR, 5-[^124/131I]iodo-2′-deoxyuridine, reference compound]
[4]
  uptake value over time: continuously increased with time
[5]
  uptake value over time: continuously increased with time
[6]
  incorporation into cells / radioactive accumulation in DNA with time: linearly incorporated
[7]; [10]
  ^131I-IU (%) in Blood: 3.65 ± 3.03%
  ^131I-IU (%) in Urine: 4.45 ± 3.03%
  ^131I-IUdR (%) in Blood: 25.23 ± 2.88%
  ^131I-IUdR (%) in Urine: 8.60 ± 2.88%
  ^131I-I^- (%) in Blood: 71.1% and 71.12 ± 5.83%
  ^131I-I^- (%) in Urine: 88.0% and 86.96 ± 5.83%
[7]; [11]
  ^131I-IU (%) in Blood: 1.58 ± 0.72%
  ^131I-IU (%) in Urine: 2.76 ± 1.23%
  ^131I-IUdR (%) in Blood: 6.42 ± 3.89%
  ^131I-IUdR (%) in Urine: 5.23 ± 2.05%
  ^131I-I^- (%) in Blood: 92.00 ± 4.51%
  ^131I-I^- (%) in Urine: 92.02 ± 3.27%
[8]; 5 min
  Biodistribution Blood: 13.62 ± 1.19 % ID/g
  Biodistribution Bone: 233 ± 035 % ID/g
  Biodistribution Kidney: 18.81 ± 2.44 % ID/g
  Biodistribution Large Intestine: 7.18 ± 038 % ID/g
  Biodistribution Liver: 15.99 ± 2.06 % ID/g
  Biodistribution Lung: 933 + 0.69 % ID/g
  Biodistribution Marrow: 3.98 ± 1.44 % ID/g
  Biodistribution Pancreas: 6.43 ± 0.41 % ID/g
  Biodistribution Stomach: 7.04 ± 0.98 % ID/g
  Biodistribution Tumor: 635 ± 1.93 % ID/g
[8]; 30 min
  Biodistribution Blood: 835 ± 132 % ID/g
  Biodistribution Bone: 2.55 ± 030 % ID/g
  Biodistribution Heart: 3.15 ± 0.4S
  Biodistribution Kidney: 6.95 ± 0.77 % ID/g
  Biodistribution Large Intestine: 5.43 ± 0.88 % ID/g
  Biodistribution Liver: 3.73 ± 0.57 % ID/g
  Biodistribution Lung: 5.80 ± 0.42 % ID/g
  Biodistribution Marrow: 538 ± 1.57 % ID/g
  Biodistribution Pancreas: 5.52 ± 0.84 % ID/g
  Biodistribution Spleen: 6.79 ± 1.66 % ID/g
  Biodistribution Stomach: 24.71 ± 3.20 % ID/g
  Biodistribution Tumor: 6.11 ± 0.97 % ID/g
[8]; 1 h
  Biodistribution Blood: 6.41 ± 036 % ID/g
  Biodistribution Bone: 1.59 ± 039 % ID/g
  Biodistribution Heart: 2.43 ± 0.56 % ID/g
  Biodistribution Large Intestine: 4.73 ± 1.16 % ID/g
  Biodistribution Liver: 2.68 ± 0.48 % ID/g
  Biodistribution Marrow: 9.86 ± 4.50 % ID/g
  Biodistribution Pancreas: 2.84 ± 0.57 % ID/g
  Biodistribution Small Intestine: 6.80 ± 0.81 % ID/g
  Biodistribution Spleen: 4.18 ± 035 % ID/g
  Biodistribution Tumor: 6.61 ± 033 % ID/g
[8]; 2 h
  Biodistribution Blood: 4.19 ± 0.60 % ID/g
  Biodistribution Bone: 132 ± 033 % ID/g
  Biodistribution Liver: 1.67 ± 0.18 % ID/g
  Biodistribution Lung: 2.86 ± 0.55 % ID/g
  Biodistribution Marrow: 6.88 ± 1.19 % ID/g
  Biodistribution Muscle: 0.93 ± 0.14 % ID/g
  Biodistribution Pancreas: 2.50 ± 0.58 % ID/g
  Biodistribution Small Intestine: 6.77 ± 1.50 % ID/g
  Biodistribution Spleen: 3.60 ± 0.40 % ID/g
  Biodistribution Stomach: 15.93 + 333 % ID/g
  Biodistribution Tumor: 5.63 ± 0.74 % ID/g
[8]; 4 h
  Biodistribution Blood: 1.96 ± 0.49 % ID/g
  Biodistribution Bone: 0.62 ± 0.29 % ID/g
  Biodistribution Heart: 0.88 ± 0.46 % ID/g
  Biodistribution Kidney: 1.77 ± 0.71 % ID/g
  Biodistribution Lung: 1.60 ± 0.71 % ID/g
  Biodistribution Marrow: 6.63 ± 3.84 % ID/g
  Biodistribution Muscle: 0.53 ± 0.26 % ID/g
  Biodistribution Pancreas: 1.18 ± 0.56 % ID/g
  Biodistribution Small Intestine: 4.76 ± 1.26 % ID/g
  Biodistribution Spleen: 1.86 ± 0.63 % ID/g
  Biodistribution Stomach: 4.49 ± 3.02 % ID/g
  Biodistribution Tumor: 3.97 ± 1.00 % ID/g
[8]; 8 h
  Biodistribution Blood: 0.48 ± 0.23 % ID/g
  Biodistribution Bone: 036 ± 0.12 % ID/g
  Biodistribution Heart: 0.19 ± 0.09 % ID/g
  Biodistribution Kidney: 0.56 ± 0.21 % ID/g
  Biodistribution Large Intestine: 1.78 ± 0.57 % ID/g
  Biodistribution Lung: 0.44 ± 0.21 % ID/g
  Biodistribution Marrow: 5.00 ± 1.59 % ID/g
  Biodistribution Muscle: 0.13 ± 0.03 % ID/g
  Biodistribution Small Intestine: 3.40 ± 0.60 % ID/g
  Biodistribution Tumor: 2.50 ± 0.79 % ID/g
[8]; mice
  excretion of drug and metabolites: mainly through the urinary system
[8]; tumor-bearing mice
  accumulation in organs (biodistribution and imaging): obviously accumulated in organs that rapidly proliferates
[9]
  Cmax: 18.91 ± 6.16 % ID/mL
  t1/2α: 4.8 ± 1.2 min
  t1/2β: 2.28 ± 0.90 h
[9]; listed as 131I-IudR
  Cmax: 18.91±6.16 % ID/mL
  t1/2α: 4.8 ± 1.2 min
  t1/2β: 2.28 ± 0.90 h
